The subject of the test is IL-17-SYK mediated CCL20 release, human keratinocytes. As to the kind of experiment: Inhibition of IL17 mediated CCL20 release in keratinocytes. Type of test: cell-based. The following applies: single donor, n=3. As for the experimental part:
In FIG. 12, each bar represents mean and SEM for 3 replicates (n=3) of a single donor. FIG. 13 is a graph showing average weekly change in pruritus (NRS) for a placebo, and Compound 1 in the doses of 20 mg, 40 mg and 80 mg.

SMILES strings stand for the structures.

These results are taken from patent US12036224B2, “Formulations, methods, kits, and dosage forms for treating atopic dermatitis and for improved stability of an active pharmaceutical ingredient” (Libertas Bio, Inc., priority 2017, dated 2024).

Turning to `COc1cc(Nc2ncc(F)c(Nc3ccc4c(n3)NC(=O)C(C)(C)O4)n2)cc(OC)c1OC` [Tamatinib, reference compound], the “inhibition of IL-17-SYK mediated CCL20 release” value was “unlike Tamatinib and Tofacitinib, Compound 1 inhibits”.
